Test results reported in patent US20260250289A1, “BICYCLIC HETEROCYCLES AND THEIR USE AS WRN INHIBITORS” (Novartis AG, priority 2022, published 2026).
pIC50: −log10 of the molar value.

How the values were obtained:
[1] = biological target: T1, WRN helicase (aa N517-P1238) (Homo sapiens, UniProt Q14191); experiment: WRN ATPase assay (DNA dependent ATP hydrolysis, ADP-Glo); assay type: biochemical; settings: 3 hours pre-incubation, 300 micromolar ATP, FLAP26 DNA; geometric mean of at least 2
T1 construct: The core helicase motif of the WRN protein (aa N517-P1238) was produced for this assay; His (N); ZZ (N); 3C protease cleavage site (N); made in house; host or cells: Sf21 insect cells (baculovirus; virus and BIICs made in SF9)
Procedure, shortened: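 DNA-dependent ATP hydrolysis detected as ADP by ADP-Glo luminescence, using 300 μM ATP, 0.2 nM FLAP26 substrate and 10 nM WRN aa N517-P1238 (Tris pH 7.5 buffer, 2 mM MgCl2, 50 mM NaCl). IC50s fitted from normalized duplicate half-log dilutions; reported as geometric means of at least 2 replicates.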

DLD1-WRN-KO cells = experiment: Proliferation assay DLD1-WRN-KO (CellTiterGlo, off-target effects); assay type: cell-based; settings: 96 hours, geometric mean of at least 2
Procedure, shortened: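 DLD1 cells with CRISPR knockout of WRN were exposed overnight-seeded to eight 3-fold compound dilutions (0.1% DMSO) for 96 h at 37 °C. Viability was read as ATP by CellTiterGlo luminescence against a day-0 plate, giving GI50 and residual viability at top concentration.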

SW48 cells = experiment: Proliferation assay SW48 (CellTiterGlo); assay type: cell-based; settings: Homo sapiens, SW48, 96 h, SW48 colon carcinoma cells, 96 hours, CellTiterGlo; geometric mean of at least 2; read-out: Proliferation Assay SW48 GI50
Procedure, shortened: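 SW48 cells, 2,000/well, treated after overnight seeding with eight 3-fold compound dilutions (0.1% DMSO) for 96 hours at 37° C. Viability read as ATP by CellTiterGlo luminescence, normalised to a day-0 plate and vehicle to give % growth; GI50 is geometric mean of ≥2 independent replicates.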

T1 sequence (Q14191 517-1238): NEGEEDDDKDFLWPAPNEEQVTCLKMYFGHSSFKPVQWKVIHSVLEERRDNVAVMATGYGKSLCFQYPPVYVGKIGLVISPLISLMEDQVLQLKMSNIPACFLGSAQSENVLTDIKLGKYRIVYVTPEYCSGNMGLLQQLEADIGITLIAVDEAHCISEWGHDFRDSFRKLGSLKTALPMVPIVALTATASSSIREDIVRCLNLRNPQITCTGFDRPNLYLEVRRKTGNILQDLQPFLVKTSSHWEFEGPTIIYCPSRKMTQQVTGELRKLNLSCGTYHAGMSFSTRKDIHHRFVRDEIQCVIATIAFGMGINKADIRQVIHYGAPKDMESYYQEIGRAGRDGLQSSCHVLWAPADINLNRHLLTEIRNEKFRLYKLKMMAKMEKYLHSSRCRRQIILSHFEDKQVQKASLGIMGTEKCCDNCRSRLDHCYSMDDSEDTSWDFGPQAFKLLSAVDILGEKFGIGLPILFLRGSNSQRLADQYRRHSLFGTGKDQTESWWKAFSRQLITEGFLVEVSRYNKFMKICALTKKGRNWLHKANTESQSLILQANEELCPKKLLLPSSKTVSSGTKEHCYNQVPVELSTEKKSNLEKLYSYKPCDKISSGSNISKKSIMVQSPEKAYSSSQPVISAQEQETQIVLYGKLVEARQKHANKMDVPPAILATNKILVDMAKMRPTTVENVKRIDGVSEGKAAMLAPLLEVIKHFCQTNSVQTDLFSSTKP

In the case of `CC(=O)N1CCN(c2c(C)n(CC(=O)Nc3ccc(C(F)(F)F)c(F)c3)c3nc(C4=CCOCC4)nn3c2=O)CC1` [Example 90, 2-(6-(4-acetylpiperazin-1-yl)-2-(3,6-dihydro-2H-pyran-4-yl)-5-methyl-7-oxo-[1,2,4]triazolo[1,5-a]pyrimidin-4(7H)-yl)-N-(3-fluoro-4-(trifluoromethyl)phenyl)acetamide], the pIC50 [1] was 6.22, the GI50 (DLD1-WRN-KO cells) was > 10000 nM and the GI50 (SW48 cells) was 4000 nM.
For `CC(=O)N1CCN(c2c(C)n(CC(=O)Nc3ccc(Cl)c4c3CCC4)c3nc(C4=CCOCC4)nn3c2=O)CC1` [Example 129, 2-(6-(4-acetylpiperazin-1-yl)-2-(3,6-dihydro-2H-pyran-4-yl)-5-methyl-7-oxo-[1,2,4]triazolo[1,5-a]pyrimidin-4(7H)-yl)-N-(7-chloro-2,3-dihydro-1H-inden-4-yl)acetamide], the pIC50 [1] was 6.10, the GI50 (DLD1-WRN-KO cells) was > 10000 nM and the GI50 (SW48 cells) was 5000 nM.
In the case of `CC(=O)N1CCN(c2c(C)n(CC(=O)Nc3ccc(S(F)(F)(F)(F)F)cc3Cl)c3nc(C4=CCOCC4)nn3c2=O)CC1` [Example 73, 2-(6-(4-acetylpiperazin-1-yl)-2-(3,6-dihydro-2H-pyran-4-yl)-5-methyl-7-oxo-[1,2,4]triazolo[1,5-a]pyrimidin-4(7H)-yl)-N-(2-chloro-4-(pentafluoro-l6-sulfaneyl)phenyl)acetamide], the pIC50 [1] was 7.00, the GI50 (DLD1-WRN-KO cells) was > 10000 nM and the GI50 (SW48 cells) was 2000 nM.
For `CCc1c(N2CCN(C(=O)c3c(O)ccc4cccnc34)CC2)c(=O)n2nc(C3=CCOCC3)nc2n1CC(=O)Nc1ccc(C(F)(F)F)cc1` [Example 14, 2-(2-(3,6-dihydro-2H-pyran-4-yl)-5-ethyl-6-(4-(7-hydroxyquinoline-8-carbonyl)piperazin-1-yl)-7-oxo-[1,2,4]triazolo[1,5-a]pyrimidin-4(7H)-yl)-N-(4-(trifluoromethyl)phenyl)acetamide], the pIC50 [1] was 7.40, the GI50 (DLD1-WRN-KO cells) was > 10000 nM and the GI50 (SW48 cells) was 200 nM.
For `Cc1cc(C(=O)N2CCN(c3c(C)n(CC(=O)Nc4ccc(C(F)(F)F)cc4)c4nc(C5=CCOCC5)nn4c3=O)CC2)c(O)cn1` [Example 26, 2-(2-(3,6-dihydro-2H-pyran-4-yl)-6-(4-(5-hydroxy-2-methylisonicotinoyl)piperazin-1-yl)-5-methyl-7-oxo-[1,2,4]triazolo[1,5-a]pyrimidin-4(7H)-yl)-N-(4-(trifluoromethyl)phenyl)acetamide], the pIC50 [1] was 6.52, the GI50 (DLD1-WRN-KO cells) was > 10000 nM and the GI50 (SW48 cells) was > 10000 nM.
`CC(=O)N1CCN(c2c(C)n(CC(=O)Nc3ccc(C(F)(F)F)cc3)c3nc(-c4ccccn4)nn3c2=O)CC1` [Example 115, 2-(6-(4-acetylpiperazin-1-yl)-5-methyl-7-oxo-2-(pyridin-2-yl)-[1,2,4]triazolo[1,5-a]pyrimidin-4(7H)-yl)-N-(4-(trifluoromethyl)phenyl)acetamide] showed a pIC50 [1] of 6.30, a GI50 (DLD1-WRN-KO cells) of 5000 nM and a GI50 (SW48 cells) of 2000 nM.
For `CCON1CCN(c2nc3n(CC(=O)Nc4ccc(C(F)(F)F)cc4)c(C)c(N4CCN(C(C)=O)CC4)c(=O)n3n2)CC1` [Example 131, 2-(6-(4-acetylpiperazin-1-yl)-2-(4-ethoxypiperazin-1-yl)-5-methyl-7-oxo-[1,2,4]triazolo[1,5-a]pyrimidin-4(7H)-yl)-N-(4-(trifluoromethyl)phenyl)acetamide], the pIC50 [1] was 6.00, the GI50 (DLD1-WRN-KO cells) was > 10000 nM and the GI50 (SW48 cells) was 6000 nM.
With `CC(=O)N1CCN(c2c(C)n(CC(=O)Nc3ccc(C(F)(F)F)cc3)c3nc(C4=COCCO4)nn3c2=O)CC1` [Example 104, 2-(6-(4-acetylpiperazin-1-yl)-2-(5,6-dihydro-1,4-dioxin-2-yl)-5-methyl-7-oxo-[1,2,4]triazolo[1,5-a]pyrimidin-4(7H)-yl)-N-(4-(trifluoromethyl)phenyl)acetamide] the pIC50 [1] was 6.10, the GI50 (DLD1-WRN-KO cells) was > 10000 nM and the GI50 (SW48 cells) was 8000 nM.
With `CCc1c(N2CCN(C(=O)c3ccnc(F)c3O)CC2)c(=O)n2nc(C3=CCOCC3)nc2n1CC(=O)Nc1ccc(C(F)(F)F)cc1Cl` [Example 42, N-(2-chloro-4-(trifluoromethyl)phenyl)-2-(2-(3,6-dihydro-2H-pyran-4-yl)-5-ethyl-6-(4-(2-fluoro-3-hydroxyisonicotinoyl)piperazin-1-yl)-7-oxo-[1,2,4]triazolo[1,5-a]pyrimidin-4(7H)-yl)acetamide] the pIC50 [1] was 7.15, the GI50 (DLD1-WRN-KO cells) was > 10000 nM and the GI50 (SW48 cells) was 500 nM.
In the case of `CC(=O)N(C)Cc1ccc(-c2nc3n(CC(=O)Nc4ccc(C(F)(F)F)cc4)c(C)c(N4CCN(C(C)=O)CC4)c(=O)n3n2)cc1` [Example 70, 2-(6-(4-acetylpiperazin-1-yl)-5-methyl-2-(4-((N-methylacetamido)methyl)phenyl)-7-oxo-[1,2,4]triazolo[1,5-a]pyrimidin-4(7H)-yl)-N-(4-(trifluoromethyl)phenyl)acetamide], the pIC50 [1] was 7.15, the GI50 (DLD1-WRN-KO cells) was > 10000 nM and the GI50 (SW48 cells) was 900 nM.
For `COC1CCN(c2nc3n(CC(=O)Nc4ccc(C(F)(F)F)cc4)c(C)c(N4CCN(C(C)=O)CC4)c(=O)n3n2)CC1` [Example 123, 2-(6-(4-acetylpiperazin-1-yl)-2-(4-methoxypiperidin-1-yl)-5-methyl-7-oxo-[1,2,4]triazolo[1,5-a]pyrimidin-4(7H)-yl)-N-(4-(trifluoromethyl)phenyl)acetamide], the pIC50 [1] was 6.15, the GI50 (DLD1-WRN-KO cells) was > 10000 nM and the GI50 (SW48 cells) was 9000 nM.
`CC(=O)N1CCN(c2c(C)n(CC(=O)Nc3cc(F)c(C(F)F)cc3C)c3nc(C4=CCOCC4)nn3c2=O)CC1` [Example 94, 2-(6-(4-acetylpiperazin-1-yl)-2-(3,6-dihydro-2H-pyran-4-yl)-5-methyl-7-oxo-[1,2,4]triazolo[1,5-a]pyrimidin-4(7H)-yl)-N-(4-(difluoromethyl)-5-fluoro-2-methylphenyl)acetamide] was tested, and the pIC50 [1] was 6.15, the GI50 (DLD1-WRN-KO cells) was > 10000 nM and the GI50 (SW48 cells) was 3000 nM.
`CC(=O)N1CCN(c2c(C)n(CC(=O)Nc3ccc(Cl)c(Cl)c3)c3nc(-c4ccc(CN(C)C(=O)OC5CC/C=C/CCC5)cc4)nn3c2=O)CC1` (stereo not drawn) [Example 102, (E)-cyclooct-4-en-1-yl (4-(6-(4-acetylpiperazin-1-yl)-4-(2-((3,4-dichlorophenyl)amino)-2-oxoethyl)-5-methyl-7-oxo-4,7-dihydro-[1,2,4]triazolo[1,5-a]pyrimidin-2-yl)benzyl)(methyl)carbamate] was tested, and the pIC50 [1] was < 5.52, the GI50 (DLD1-WRN-KO cells) was 5000 nM and the GI50 (SW48 cells) was 7000 nM.
`CC(=O)N1C2CCC1CN(c1c(C)n(CC(=O)Nc3ccc(C(F)(F)F)cc3)c3nc(C4=CCOCC4)nn3c1=O)C2` [Example 161, 2-(6-(8-acetyl-3,8-diazabicyclo[3.2.1]octan-3-yl)-2-(3,6-dihydro-2H-pyran-4-yl)-5-methyl-7-oxo-[1,2,4]triazolo[1,5-a]pyrimidin-4(7H)-yl)-N-(4-(trifluoromethyl)phenyl)acetamide] was tested, and the pIC50 [1] was 6.15, the GI50 (DLD1-WRN-KO cells) was > 10000 nM and the GI50 (SW48 cells) was 5000 nM.
`Cc1c(N2CCN(C(=O)c3c(F)ccc(F)c3O)C(C)C2)c(=O)n2nc(C3=CCOCC3)nc2n1CC(=O)Nc1ccc(C(F)(F)F)cc1` (stereo not drawn) [Example 148, 2-(6-(4-(3,6-difluoro-2-hydroxybenzoyl)-3-methylpiperazin-1-yl)-2-(3,6-dihydro-2H-pyran-4-yl)-5-methyl-7-oxo-[1,2,4]triazolo[1,5-a]pyrimidin-4(7H)-yl)-N-(4-(trifluoromethyl)phenyl)acetamide] was tested, and the pIC50 [1] was 7.22, the GI50 (DLD1-WRN-KO cells) was > 10000 nM and the GI50 (SW48 cells) was 300 nM.
With `CC(=O)N1CCN(c2c(C)n(CC(=O)Nc3ccc(C(F)(F)F)cc3)c3nc(C4=CCCO4)nn3c2=O)CC1` [Example 134, 2-(6-(4-acetylpiperazin-1-yl)-2-(4,5-dihydrofuran-2-yl)-5-methyl-7-oxo-[1,2,4]triazolo[1,5-a]pyrimidin-4(7H)-yl)-N-(4-(trifluoromethyl)phenyl)acetamide] the pIC50 [1] was 5.40, the GI50 (DLD1-WRN-KO cells) was > 10000 nM and the GI50 (SW48 cells) was 5000 nM.
With `CC(=O)N1CCN(c2c(C)n(CC(=O)Nc3ccc(S(F)(F)(F)(F)F)cc3)c3nc(C4=CCCCO4)nn3c2=O)CC1` [Example 127, 2-(6-(4-acetylpiperazin-1-yl)-2-(3,4-dihydro-2H-pyran-6-yl)-5-methyl-7-oxo-[1,2,4]triazolo[1,5-a]pyrimidin-4(7H)-yl)-N-(4-(pentafluoro-16-sulfaneyl)phenyl)acetamide] the pIC50 [1] was 7.70, the GI50 (DLD1-WRN-KO cells) was 7000 nM and the GI50 (SW48 cells) was > 10000 nM.
For `CCc1c(N2CCN(C(=O)c3nn(C)c(=O)[nH]3)CC2)c(=O)n2nc(C3=CCC(OC)CC3)nc2n1CC(=O)Nc1ccc(C(F)(F)F)cc1` (stereo not drawn) [Example 53, 2-(5-ethyl-2-(4-methoxycyclohex-1-en-1-yl)-6-(4-(1-methyl-5-oxo-4,5-dihydro-1H-1,2,4-triazole-3-carbonyl)piperazin-1-yl)-7-oxo-[1,2,4]triazolo[1,5-a]pyrimidin-4(7H)-yl)-N-(4-(trifluoromethyl)phenyl)acetamide], the pIC50 [1] was 7.22, the GI50 (DLD1-WRN-KO cells) was > 10000 nM and the GI50 (SW48 cells) was 800 nM.
With `Cc1c(N2CCN(C(=O)Nc3nccs3)CC2)c(=O)n2nc(C3=CCOCC3)nc2n1CC(=O)Nc1ccc(C(F)(F)F)cc1` [Example 29, 4-(2-(3,6-dihydro-2H-pyran-4-yl)-5-methyl-7-oxo-4-(2-oxo-2-((4-(trifluoromethyl)phenyl)amino)ethyl)-4,7-dihydro-[1,2,4]triazolo[1,5-a]pyrimidin-6-yl)-N-(thiazol-2-yl)piperazine-1-carboxamide] the pIC50 [1] was 7.00, the GI50 (DLD1-WRN-KO cells) was > 10000 nM and the GI50 (SW48 cells) was 2000 nM.
